Data from patent US20050042281A1, “Compositions for delivering therapeutic agents across the oral mucosa” (priority 2003, published 2005).

Tests used:
[1] = Extent of un-ionized form at a given pH, worked out from pKa; assay type: physicochemical
From the text: Conversion of the ionized form to the un-ionized form for basic agents is related to pH by the formula: pH=pKa +Log10 (Un-ionized concentration/Ionized concentration). When the pH is the same as the pKa, equimolar concentrations of the unionized form and ionized form exist. […] Similarly, when the pH is two units higher than the pKa, the ratio of un-ionized form to the ionized form is 100:1. As noted above, the un-ionized form is lipophilic and, therefore, more capable of passing through the mucous membranes than the ionized form, which is lipophobic in nature. Accordingly, increasing the pH of the saliva favors conversion of the ionized form into the un-ionized form for basic agents, and the final pH may be determined by making use of the above formula for any basic agent.

in vitro = conditions: PAMPA
Description: (§1) This assay uses a lipid-coated membrane to predict lipid mucosal membrane penetration.
(§2) The membrane apparatus consists of a dodecane membrane sandwiched between a donor and acceptor cell.
(§3) Membrane assays were performed using oxycodone HCl solutions at a pH of 6.5, 9.5, and 10.0. The pH of the solutions was adjusted using a freshly prepared 0.01 M sodium bicarbonate—sodium carbonate buffer. Permeation was measured by determining the concentrations of oxycodone in the acceptor cell and is expressed as Pe (effective permeability in centimeters per second).

[2] = Membrane assay (parallel artificial membrane, effective permeability); conditions: for Papp: PAMPA
Description: as §1, §2, §3

[3] = pH at which net charge is zero; cited from earlier work

Which results are given for `CNS(=O)(=O)Cc1ccc2[nH]cc(CCN(C)C)c2c1` [Sumatriptan, sumatriptan]?
un-ionized ([1]; at pH 10.5): 99%; un-ionized ([1]; at pH 11.5): 100%; Papp (in vitro; pH 9): 599 ×10⁻⁶ cm/s; Papp (in vitro; pH 9.5): 945 ×10⁻⁶ cm/s; Papp (in vitro; pH 10): 1560 ×10⁻⁶ cm/s

With `Cc1nccn1CC1CCc2c(c3ccccc3n2C)C1=O` (stereo not shown) [Ondansetron] as the compound, how does the “increase of effective permeability” value ([2]; pH 8.5 relative to pH 5.4) read?
Its value is > 1000%.

What about the “increase of effective permeability” value ([2]; pH 8.5 relative to pH 7.4) of the same compound?
The value was “more than 200%”.

With `CN1CCC23c4c5ccc(O)c4OC2C(O)C=CC3C1C5` (stereo not shown) [morphine] as the compound, how does the isoelectric point [3] read?
The isoelectric point was 9.1.

Which results are given for `COc1ccc2c3c1O[C@H]1C(=O)CC[C@@]4(O)[C@@H](C2)N(C)CC[C@]314` [Oxycodone, oxycodone]?
Papp ([2]; pH 6.5): 227 ×10⁻⁶ cm/s; Papp ([2]; pH 9.5): 490 ×10⁻⁶ cm/s; Papp ([2]; pH 10): 554 ×10⁻⁶ cm/s; un-ionized ([1]; at pH 9.9): 99%; un-ionized ([1]; at pH 10.9): 100%
